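Dose response: 5 concentrations. Exposure: 48 h. Format: 96-well plates. Endpoint: linear interpolation; highest concentration if not reached. GI50: concentration for 50% inhibition of growth.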 Active and inactive are the calls of the source. Rule as the data show it: active = GI50 up to about 1.1 µM and inactive = higher.
Legend:
Test in all cases: inhibition of tumour cell growth, NCI panel, 48 h
[1] = test system: SNB-75
[2] = test system: OVCAR-8
[3] = test system: MDA-N
[4] = test system: Hs-578T
[5] = test system: ACHN
[6] = test system: DU-145
[7] = test system: HCT-15
[8] = test system: A549
[9] = test system: SN12C
[10] = test system: LOX IMVI
[11] = test system: MOLT-4
[12] = test system: IGROV-1
[13] = test system: OVCAR-5
[14] = test system: HOP-92
[15] = test system: OVCAR-4
[16] = test system: NCI-H522
[17] = test system: HCT-116
[18] = test system: 786-0
[19] = test system: SK-OV-3
[20] = test system: PC-3
[21] = test system: CCRF-CEM
[22] = test system: NCI-H23
[23] = test system: TK-10
[24] = test system: SK-MEL-2
[25] = test system: SNB-19
[26] = test system: HT-29
[27] = test system: M14
[28] = test system: A498
[29] = test system: NCI-H460
[30] = test system: HCC 2998
[31] = test system: MDA-MB-231
[32] = test system: UACC-257
[33] = test system: HL-60
[34] = test system: UACC-62
[35] = test system: CAKI-1
[36] = test system: RXF 393
[37] = test system: KM12
[38] = test system: NCI/ADR-RES
[39] = test system: MDA-MB-435
[40] = test system: K562
[41] = test system: Malme-3M
[42] = test system: SW-620
[43] = test system: SR
[44] = test system: SK-MEL-28
[45] = test system: NCI-H226
[46] = test system: MCF7
[47] = test system: HOP-62
[48] = test system: SF-539
[49] = test system: T47D
[50] = test system: SF-295
[51] = test system: OVCAR-3
[52] = test system: SF-268
[53] = test system: U-251
[54] = test system: EKVX
[55] = test system: COLO 205
[56] = test system: SK-MEL-5
[57] = test system: BT-549
[58] = test system: UO-31
[59] = test system: RPMI-8226

O=c1[nH]c(=O)n(C2OC(CO)C(O)C2O)cc1Oc1ccccc1 (stereo not drawn)
GI50 [1]: > 100 µM (inactive)
GI50 [2]: > 100 µM (inactive)
GI50 [3]: > 100 µM (inactive)
GI50 [4]: 98.9 µM (inactive)
GI50 [5]: > 100 µM (inactive)
GI50 [6]: > 100 µM (inactive)
GI50 [7]: > 100 µM
GI50 [8]: > 100 µM (inactive)
GI50 [9]: > 100 µM (inactive)
GI50 [10]: > 100 µM (inactive)
GI50 [11]: > 100 µM (inactive)
GI50 [12]: > 100 µM (inactive)
GI50 [13]: > 100 µM (inactive)
GI50 [14]: > 100 µM (inactive)
GI50 [15]: > 100 µM (inactive)
GI50 [16]: > 100 µM (inactive)
GI50 [17]: > 100 µM (inactive)
GI50 [18]: > 100 µM (inactive)
GI50 [19]: > 100 µM (inactive)
GI50 [20]: > 100 µM (inactive)
GI50 [21]: > 100 µM (inactive)
GI50 [22]: > 100 µM (inactive)
GI50 [23]: > 100 µM (inactive)
GI50 [24]: > 100 µM (inactive)
GI50 [25]: > 100 µM (inactive)
GI50 [26]: > 100 µM (inactive)
GI50 [27]: > 100 µM (inactive)
GI50 [28]: > 100 µM (inactive)
GI50 [29]: > 100 µM (inactive)
GI50 [30]: > 100 µM (inactive)
GI50 [31]: > 100 µM (inactive)
GI50 [32]: > 100 µM (inactive)
GI50 [33]: > 100 µM (inactive)
GI50 [34]: > 100 µM (inactive)
GI50 [35]: > 100 µM (inactive)
GI50 [36]: > 100 µM (inactive)
GI50 [37]: > 100 µM (inactive)
GI50 [38]: > 100 µM (inactive)
GI50 [39]: > 100 µM (inactive)
GI50 [40]: > 100 µM (inactive)
GI50 [41]: > 100 µM (inactive)
GI50 [42]: > 100 µM (inactive)
GI50 [43]: > 100 µM (inactive)
GI50 [44]: > 100 µM (inactive)
GI50 [45]: > 100 µM (inactive)
GI50 [46]: > 100 µM (inactive)
GI50 [47]: > 100 µM (inactive)
GI50 [48]: > 100 µM (inactive)
GI50 [49]: > 100 µM (inactive)
GI50 [50]: > 100 µM (inactive)
GI50 [51]: > 100 µM (inactive)
GI50 [52]: > 100 µM (inactive)
GI50 [53]: > 100 µM (inactive)
GI50 [54]: > 100 µM (inactive)
GI50 [55]: > 100 µM (inactive)
GI50 [56]: > 100 µM (inactive)

CCOC(=O)Cc1nnc2c(-c3ccccc3)nc3ccccc3n12
GI50 [3]: > 100 µM (inactive)
GI50 [57]: > 100 µM (inactive)
GI50 [5]: 19.8 µM (inactive)
GI50 [58]: 71 µM (inactive)
GI50 [6]: 33 µM (inactive)
GI50 [7]: 56.2 µM
GI50 [8]: > 100 µM (inactive)
GI50 [9]: 53.8 µM (inactive)
GI50 [10]: 53.7 µM (inactive)
GI50 [11]: > 100 µM (inactive)
GI50 [12]: 85.7 µM (inactive)
GI50 [13]: 63.5 µM (inactive)
GI50 [14]: 41.6 µM (inactive)
GI50 [15]: > 100 µM (inactive)
GI50 [17]: 35.4 µM (inactive)
GI50 [18]: > 100 µM (inactive)
GI50 [19]: 23.8 µM (inactive)
GI50 [20]: 34.5 µM (inactive)
GI50 [21]: > 100 µM (inactive)
GI50 [22]: 43.3 µM (inactive)
GI50 [23]: 31.2 µM (inactive)
GI50 [24]: 28.1 µM (inactive)
GI50 [25]: 24.8 µM (inactive)
GI50 [26]: > 100 µM (inactive)
GI50 [27]: > 100 µM (inactive)
GI50 [28]: 52.5 µM (inactive)
GI50 [29]: > 100 µM (inactive)
GI50 [30]: 15.7 µM (inactive)
GI50 [31]: 19.2 µM (inactive)
GI50 [32]: > 100 µM (inactive)
GI50 [33]: > 100 µM (inactive)
GI50 [34]: 44.7 µM (inactive)
GI50 [36]: 20.6 µM (inactive)
GI50 [37]: > 100 µM (inactive)
GI50 [38]: 90.6 µM (inactive)
GI50 [39]: > 100 µM (inactive)
GI50 [40]: > 100 µM (inactive)
GI50 [41]: > 100 µM (inactive)
GI50 [42]: > 100 µM (inactive)
GI50 [43]: > 100 µM (inactive)
GI50 [44]: > 100 µM (inactive)
GI50 [45]: > 100 µM (inactive)
GI50 [46]: 85.3 µM (inactive)
GI50 [47]: 14.4 µM (inactive)
GI50 [59]: > 100 µM (inactive)
GI50 [48]: > 100 µM (inactive)
GI50 [51]: 14.6 µM (inactive)
GI50 [52]: 20.6 µM (inactive)
GI50 [53]: 22.4 µM (inactive)
GI50 [54]: 27.9 µM (inactive)
GI50 [55]: > 100 µM (inactive)
GI50 [56]: > 100 µM (inactive)

Reference: ChEMBL document CHEMBL1201862, “PubChem BioAssay data set” (2004)
